22 molecules from US20230373937A1, “INHIBITORS OF SPINSTER HOMOLOG 2 (SPNS2) FOR USE IN THERAPY” (University of Virginia Patent Foundation, priority 2020, published 2023) can be followed below.

Counter-ions that a name gives are not always drawn.

The target in this assay is T1, SPNS2 (Mus musculus, UniProt Q91VM4).
T1 construct: expressed in transfected cells; host or cells: HeLa or U937 cells
T1 sequence (Q91VM4 1-549): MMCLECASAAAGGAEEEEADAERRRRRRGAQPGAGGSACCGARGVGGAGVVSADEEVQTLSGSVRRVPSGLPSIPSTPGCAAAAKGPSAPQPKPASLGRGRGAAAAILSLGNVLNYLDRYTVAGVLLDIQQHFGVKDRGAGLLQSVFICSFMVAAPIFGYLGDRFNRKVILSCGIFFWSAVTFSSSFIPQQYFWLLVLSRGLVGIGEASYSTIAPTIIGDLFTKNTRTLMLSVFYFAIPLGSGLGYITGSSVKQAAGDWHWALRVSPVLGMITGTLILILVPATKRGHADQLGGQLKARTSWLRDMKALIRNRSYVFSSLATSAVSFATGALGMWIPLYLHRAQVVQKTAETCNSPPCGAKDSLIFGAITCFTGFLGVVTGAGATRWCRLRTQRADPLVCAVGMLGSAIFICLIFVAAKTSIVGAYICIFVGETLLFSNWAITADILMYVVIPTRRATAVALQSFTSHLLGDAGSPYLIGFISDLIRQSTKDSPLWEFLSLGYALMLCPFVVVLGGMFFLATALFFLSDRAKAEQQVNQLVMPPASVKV
As to the kind of experiment: S1P transporter assay: S1P release from whole cells expressing SPNS2. In kind it is cell-based. The settings on record: HeLa or U937 cells expressing mouse SPNS2; 18 hours; S1P in media measured by LC-MS; read-out: IC50 (in vitro inhibition against SPNS2). As for the experimental part:
Transporter assays are vectorial and therefore require measurement of the transported analyte in different compartments. The S1P transporter SPNS2 only exports S1P, which obviates measuring uptake of S1P into transporter-expressing cells. Thus, transporter activity was determined by quantifying S1P release from whole cells expressing SPNS2. SPNS2 inhibitor potency was assessed using whole cell assays. HeLa or U937 cells expressing mouse SPNS2 were used to determine inhibitor potency (IC50). Cells were plated onto 12 well plates and assayed when the cell monolayers became confluent. Cell growth media (RPMI-1640 containing 10% fetal bovine serum) was replaced with 2 mL of serum-free media (RPMI-1640) containing fatty acid free bovine serum albumin (BSA) (0.2% w/v) and supplemented with 4-deoxypyridoxine (DOP) (1 mM), NaF (2 mM), Na3VO4 (0.2 mM) to inhibit S1P degradation. Test articles (1×10-9-1×10^-4 M) were assayed in duplicate or triplicate. After 18 hours, media was collected, an internal recovery standard (0.005 mL of 5×10^-7 M deuterated (d7) S1P in methanol) was added, the BSA was precipitated with trichloroacetic acid and the bound S1P extracted with methanol. S1P and S1P-d7 were measured by liquid chromatography mass spectrometry. Inhibitor potency at the human SPNS2 ortholog was determined by an analogous assay using U-937 cells, which endogenously express human SPNS2.

With `CCCCCCCCCCc1ccc(-c2noc(CC(O)CNCC)n2)cc1` (stereo not shown) [Compound 7a, 1-(3-(4-decylphenyl)-1,2,4-oxadiazol-5-yl)-3-(ethylamino)propan-2-ol hydrochloride], the IC50 is more than 2000 nM.

For the molecule `CCCCCCCCCCc1ccc(-c2noc(CNC(=O)[C@@H]3CCN3)n2)cc1` [Compound 9z, (S)—N-((3-(4-decylphenyl)-1,2,4-oxadiazol-5-yl)methyl)azetidine-2-carboxamide 2,2,2-trifluoroacetate], the IC50 is not above 2000 nM.

On to `CCCCCCCCCCc1ccc(-c2noc(CNC(=O)C3(N)CC3)n2)cc1` [Compound 9af, 1-amino-N-((3-(4-decylphenyl)-1,2,4-oxadiazol-5-yl)methyl)cyclopropane-1-carboxamide hydrochloride], for which the IC50 is more than 2000 nM.

For the molecule `CCCCCCCCCCc1ccc(-c2noc(CNC(=O)[C@H]3CCCCN3)n2)cc1` [Compound 9t, (R)—N-((3-(4-decylphenyl)-1,2,4-oxadiazol-5-yl)methyl)piperidine-2-carboxamide hydrochloride], the half-inhibitory concentration (IC50) is more than 2000 nM.

As for `CCCCCCCCCCc1ccc(-c2noc(CNC(=O)[C@@H]3C[C@H](O)CN3)n2)cc1` [Compound 9v, (2S,4S)—N-((3-(4-decylphenyl)-1,2,4-oxadiazol-5-yl)methyl)-4-hydroxypyrrolidine-2-carboxamide hydrochloride], the IC50 is more than 2000 nM.

In the case of `CCCCCCCCCCc1ccc(-c2noc(C[C@H](C)N)n2)cc1` [Compound 5c, (S)-1-(3-(4-decylphenyl)-1,2,4-oxadiazol-5-yl)propan-2-amine 2,2,2-trifluoroacetate], the IC50 was more than 2000 nM.

On to `CCCCCCCCc1ccc(CCc2noc(CCCN)n2)cc1` [Compound 5s, 3-(3-(4-octylphenethyl)-1,2,4-oxadiazol-5-yl)propan-1-amine hydrochloride], for which the IC50 was more than 2000 nM.

Take `CCCCCCCCCCc1ccc(-c2noc(CC(O)CN3CCCC3)n2)cc1` (stereo not shown) [Compound 6b, 1-(3-(4-decylphenyl)-1,2,4-oxadiazol-5-yl)-3-(pyrrolidin-1-yl)propan-2-ol hydrochloride]: the IC50 is more than 2000 nM.

As for `CCCCCCCOc1ccc2cc(-c3noc(CCCN)n3)ccc2c1` [Compound 5w, 3-(3-(6-(heptyloxy)naphthalen-2-yl)-1,2,4-oxadiazol-5-yl)propan-1-amine hydrochloride], the IC50 is not above 2000 nM.

With `CCCCCCCCCCc1ccc(-c2noc(C3CCNCC3)n2)cc1` [Compound 5a, 3-(4-decylphenyl)-5-(piperidin-4-yl)-1,2,4-oxadiazole 2,2,2-trifluoroacetate], the IC50 was more than 2000 nM.

With `CCCCCCCCCCc1ccc(-c2noc(CCN)n2)cc1` [Compound 5b, 2-(3-(4-decylphenyl)-1,2,4-oxadiazol-5-yl)ethan-1-amine 2,2,2-trifluoroacetate], the IC50 is not above 2000 nM.

With `CCCCCCCCCCc1ccc(-c2noc([C@H]3CCC[C@@H](N)C3)n2)cc1` (racemic) [Compound 5p, (f)-cis-3-(3-(4-decylphenyl)-1,2,4-oxadiazol-5-yl)cyclohexan-1-amine hydrochloride], the IC50 was more than 2000 nM.

Regarding `CCCCCCCCCCc1ccc(-c2noc(CNC(=O)[C@H](C)N)n2)cc1` [Compound 9a, (S)-2-amino-N-((3-(4-decylphenyl)-1,2,4-oxadiazol-5-yl)methyl)propanamide hydrochloride], the IC50 is not above 2000 nM.

Take `CCCCCCCCCCc1ccc(-c2noc(CN3CCNCC3)n2)cc1` [Compound 5h, 3-(4-decylphenyl)-5-(piperazin-1-ylmethyl)-1,2,4-oxadiazole 2,2,2-trifluoroacetate]: the IC50 was not above 2000 nM.

`CCCCCCCCCCc1ccc(-c2noc([C@@H]3CCN(C(=O)CN)C3)n2)cc1` [Compound 9al, (R)-2-amino-1-(3-(3-(4-decylphenyl)-1,2,4-oxadiazol-5-yl)pyrrolidin-1-yl)ethan-1-one 2,2,2-trifluoroacetate]: the IC50 is more than 2000 nM.

For `CCCCCCCCCCc1ccc(-c2noc(CNC(=O)CN)n2)cc1` [Compound 9b, 2-amino-N-((3-(4-decylphenyl)-1,2,4-oxadiazol-5-yl)methyl)acetamide hydrochloride], the IC50 was more than 2000 nM.

Consider `CCCCCCCCCCc1ccc(-c2noc(CNC(=O)[C@H]3CCNC3)n2)cc1` [Compound 9x, (S)—N-((3-(4-decylphenyl)-1,2,4-oxadiazol-5-yl)methyl)pyrrolidine-3-carboxamide hydrochloride], for which the IC50 is more than 2000 nM.

On to `CCCCCCCCCCc1ccc(-c2noc([C@@H](N)CCCN)n2)cc1` [Compound 19b, (S)-1-(3-(4-decylphenyl)-1,2,4-oxadiazol-5-yl)butane-1,4-diamine dihydrochloride], for which the IC50 was more than 2000 nM.

As for `CCCCCCCCNC(=O)c1ccc(-c2noc([C@@H]3CCNC3)n2)cc1` [Compound 13c, (R)—N-octyl-4-(5-(pyrrolidin-3-yl)-1,2,4-oxadiazol-3-yl)benzamide hydrochloride], the IC50 is more than 2000 nM.

`CCCCCCCCCCc1cccc(-c2noc(CCCN)n2)c1` [Compound 5j, 3-(3-(3-decylphenyl)-1,2,4-oxadiazol-5-yl)propan-1-amine hydrochloride]: the IC50 was not above 2000 nM.

For `CCCCCCCCCCc1ccc(-c2noc([C@H](CCCCN)NC(C)=O)n2)cc1` [Compound 21, (S)—N-(5-amino-1-(3-(4-decylphenyl)-1,2,4-oxadiazol-5-yl)pentyl)acetamide hydrochloride], the IC50 is more than 2000 nM.

In the case of `CCCCCCCCCCc1ccc(-c2noc([C@@H]3CCC[C@@H](N)C3)n2)cc1` (racemic) [Compound 5q, (±)-trans-3-(3-(4-decylphenyl)-1,2,4-oxadiazol-5-yl)cyclohexan-1-amine hydrochloride], the IC50 is more than 2000 nM.

A word on the IC50: it is the concentration that inhibits the measured activity by half.
